Data from ChEMBL document CHEMBL5058645, “Data for DCP probe JNJ-6204” (2022).

How the values were obtained:
[1] = target: Protein kinase C delta type (Homo sapiens) (UniProt Q05655); test: PKCdelta (h) Kinase panel; conditions: Compound concentration 1.0 uM, tested as the 2H-labelled form
[2] = target: Ephrin type-A receptor 5 (Homo sapiens) (UniProt P54756); test: EphA5(h) Kinase panel; conditions: Compound concentration 1.0 uM, tested as the 2H-labelled form
[3] = target: Serine/threonine-protein kinase 38-like (Homo sapiens, UniProt Q9Y2H1); test: NDR2(h) Kinase panel; conditions: Compound concentration 1.0 uM, tested as the 2H-labelled form
Sequence of Serine/threonine-protein kinase 38-like (Q9Y2H1 2-464 limits assumed): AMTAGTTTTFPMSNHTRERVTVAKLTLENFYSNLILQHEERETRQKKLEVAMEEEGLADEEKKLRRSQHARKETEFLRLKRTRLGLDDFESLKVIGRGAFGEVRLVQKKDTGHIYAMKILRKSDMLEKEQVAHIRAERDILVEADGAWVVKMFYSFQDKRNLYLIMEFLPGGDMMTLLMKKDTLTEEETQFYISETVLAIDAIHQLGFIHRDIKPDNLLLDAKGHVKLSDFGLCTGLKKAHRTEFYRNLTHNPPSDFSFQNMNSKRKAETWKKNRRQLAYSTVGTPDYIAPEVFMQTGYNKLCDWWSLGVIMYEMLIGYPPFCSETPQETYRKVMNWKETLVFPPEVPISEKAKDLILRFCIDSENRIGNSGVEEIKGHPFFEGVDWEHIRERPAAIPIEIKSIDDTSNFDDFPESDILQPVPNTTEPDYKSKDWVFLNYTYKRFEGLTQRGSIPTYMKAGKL

[4] = target: Serine/threonine-protein kinase MAK (Homo sapiens) (UniProt P20794); test: MAK(h) Kinase panel; conditions: Compound concentration 1.0 uM, tested as the 2H-labelled form
[5] = target: Maternal embryonic leucine zipper kinase (Homo sapiens) (UniProt Q14680); test: MELK(h) Kinase panel; conditions: Compound concentration 1.0 uM, tested as the 2H-labelled form
[6] = target: Serine/threonine-protein kinase Nek2 (Homo sapiens) (UniProt P51955); test: NEK2(h) Kinase panel; conditions: Compound concentration 1.0 uM, tested as the 2H-labelled form
[7] = target: Activin receptor type-1B (Homo sapiens) (UniProt P36896); test: ALK4(h) Kinase panel; conditions: Compound concentration 1.0 uM, tested as the 2H-labelled form
[8] = target: Macrophage colony-stimulating factor 1 receptor (Homo sapiens, UniProt P07333); test: Fms(h) Kinase panel; conditions: Compound concentration 1.0 uM, tested as the 2H-labelled form
[9] = target: Serine/threonine-protein kinase PLK2 (Homo sapiens) (UniProt Q9NYY3); test: Snk(h) Kinase panel; conditions: Compound concentration 1.0 uM, tested as the 2H-labelled form
Sequence of Serine/threonine-protein kinase PLK2 (Homo sapiens) (Q9NYY3 whole entry, looked up): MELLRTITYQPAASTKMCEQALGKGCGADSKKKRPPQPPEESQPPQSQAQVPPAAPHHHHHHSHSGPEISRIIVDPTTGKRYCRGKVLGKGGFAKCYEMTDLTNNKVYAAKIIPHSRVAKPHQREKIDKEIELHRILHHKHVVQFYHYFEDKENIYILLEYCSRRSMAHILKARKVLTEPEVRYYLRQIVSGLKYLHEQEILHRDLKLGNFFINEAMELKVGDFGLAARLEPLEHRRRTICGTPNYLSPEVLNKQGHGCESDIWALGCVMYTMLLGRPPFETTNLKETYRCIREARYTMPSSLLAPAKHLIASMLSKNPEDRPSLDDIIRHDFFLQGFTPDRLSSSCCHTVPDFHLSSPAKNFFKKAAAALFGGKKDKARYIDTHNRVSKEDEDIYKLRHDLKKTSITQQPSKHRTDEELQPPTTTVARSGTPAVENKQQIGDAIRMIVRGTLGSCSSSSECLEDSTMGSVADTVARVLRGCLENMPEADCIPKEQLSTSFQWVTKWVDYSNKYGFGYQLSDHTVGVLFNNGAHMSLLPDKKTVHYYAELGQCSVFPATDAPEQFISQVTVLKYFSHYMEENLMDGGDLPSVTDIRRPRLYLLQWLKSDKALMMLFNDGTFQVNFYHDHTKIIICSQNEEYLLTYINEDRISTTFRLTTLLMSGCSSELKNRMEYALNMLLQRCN

[10] = target: Serine/threonine-protein kinase SBK1 (Homo sapiens) (UniProt Q52WX2); test: SBK1(h) Kinase panel; conditions: Compound concentration 1.0 uM, tested as the 2H-labelled form
Sequence of Serine/threonine-protein kinase SBK1 (Homo sapiens) (Q52WX2 whole entry): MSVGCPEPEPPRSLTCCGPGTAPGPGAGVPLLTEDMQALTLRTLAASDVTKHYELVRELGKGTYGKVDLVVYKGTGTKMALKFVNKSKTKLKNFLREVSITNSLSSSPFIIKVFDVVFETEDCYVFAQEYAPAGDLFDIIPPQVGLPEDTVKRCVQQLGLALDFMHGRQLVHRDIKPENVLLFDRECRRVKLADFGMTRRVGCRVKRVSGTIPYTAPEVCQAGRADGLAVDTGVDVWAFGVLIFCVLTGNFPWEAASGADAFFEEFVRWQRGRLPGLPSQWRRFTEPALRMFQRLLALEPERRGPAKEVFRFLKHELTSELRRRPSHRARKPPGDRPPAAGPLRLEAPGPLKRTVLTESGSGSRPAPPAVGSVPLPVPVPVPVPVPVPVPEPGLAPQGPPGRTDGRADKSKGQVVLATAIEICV

[11] = target: Cyclin-dependent kinase 17 (Homo sapiens) (UniProt Q00537); test: CDK17/cyclinY(h) Kinase panel; conditions: Compound concentration 1.0 uM, tested as the 2H-labelled form
[12] = target: Serine/threonine-protein kinase PAK 3 (Homo sapiens) (UniProt O75914); test: PAK3(h) Kinase panel; conditions: Compound concentration 1.0 uM, tested as the 2H-labelled form
[13] = target: Eukaryotic elongation factor 2 kinase (Homo sapiens) (UniProt O00418); test: eEF-2K(h) Kinase panel; conditions: Compound concentration 1.0 uM, tested as the 2H-labelled form
[14] = target: Serine/threonine-protein kinase D1 (Homo sapiens) (UniProt Q15139); test: PKCmu (h) Kinase panel; conditions: Compound concentration 1.0 uM, tested as the 2H-labelled form
[15] = target: Serine/threonine-protein kinase LATS1 (Homo sapiens) (UniProt O95835); test: LATS1(h) Kinase panel; conditions: Compound concentration 1.0 uM, tested as the 2H-labelled form
[16] = target: cGMP-dependent protein kinase 1 (Homo sapiens) (UniProt Q13976); test: PKG1alpha (h) Kinase panel; conditions: Compound concentration 1.0 uM, tested as the 2H-labelled form
[17] = target: Cyclin-dependent kinase 4 (Homo sapiens) (UniProt P11802); test: CDK4/cyclinD3(h) Kinase panel; conditions: Compound concentration 1.0 uM, tested as the 2H-labelled form
Sequence of Cyclin-dependent kinase 4 (Homo sapiens) (P11802 whole entry): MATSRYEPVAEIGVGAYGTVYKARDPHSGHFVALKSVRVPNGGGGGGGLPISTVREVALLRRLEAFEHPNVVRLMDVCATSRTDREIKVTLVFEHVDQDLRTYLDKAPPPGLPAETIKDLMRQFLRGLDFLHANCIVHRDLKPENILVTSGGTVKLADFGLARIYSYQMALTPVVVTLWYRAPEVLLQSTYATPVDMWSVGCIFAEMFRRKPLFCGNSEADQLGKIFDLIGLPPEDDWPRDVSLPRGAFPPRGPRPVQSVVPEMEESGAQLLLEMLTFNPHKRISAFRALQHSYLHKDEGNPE

[18] = target: 5-hydroxytryptamine receptor 2C (Homo sapiens) (UniProt P28335); conditions: Compound concentration 10.0 uM, tested as the 2H-labelled form
Sequence of 5-hydroxytryptamine receptor 2C (Homo sapiens) (P28335 whole entry, canonical isoform): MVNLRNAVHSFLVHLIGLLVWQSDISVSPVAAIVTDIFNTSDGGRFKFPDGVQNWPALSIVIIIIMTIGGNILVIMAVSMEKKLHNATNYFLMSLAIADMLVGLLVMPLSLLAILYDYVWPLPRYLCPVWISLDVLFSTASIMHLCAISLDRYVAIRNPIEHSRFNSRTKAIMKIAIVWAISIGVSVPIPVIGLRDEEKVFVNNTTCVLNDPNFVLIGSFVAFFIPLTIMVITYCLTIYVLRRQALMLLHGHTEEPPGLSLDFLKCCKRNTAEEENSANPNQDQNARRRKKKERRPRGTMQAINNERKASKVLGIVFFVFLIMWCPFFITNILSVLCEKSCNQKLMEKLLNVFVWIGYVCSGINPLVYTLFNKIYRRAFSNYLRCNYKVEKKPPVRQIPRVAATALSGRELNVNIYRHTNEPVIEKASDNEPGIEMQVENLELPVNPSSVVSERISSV

[19] = target: Casein kinase I isoform gamma-2 (Homo sapiens) (UniProt P78368); test: CK1gamma2(h) Kinase panel; conditions: Compound concentration 1.0 uM, tested as the 2H-labelled form
[20] = target: Death-associated protein kinase 1 (Homo sapiens) (UniProt P53355); test: DAPK1(h) Kinase panel; conditions: Compound concentration 1.0 uM, tested as the 2H-labelled form
[21] = target: 5-hydroxytryptamine receptor 2B (Homo sapiens) (UniProt P41595); conditions: Compound concentration 10.0 uM, tested as the 2H-labelled form
Sequence of 5-hydroxytryptamine receptor 2B (Homo sapiens) (P41595 whole entry): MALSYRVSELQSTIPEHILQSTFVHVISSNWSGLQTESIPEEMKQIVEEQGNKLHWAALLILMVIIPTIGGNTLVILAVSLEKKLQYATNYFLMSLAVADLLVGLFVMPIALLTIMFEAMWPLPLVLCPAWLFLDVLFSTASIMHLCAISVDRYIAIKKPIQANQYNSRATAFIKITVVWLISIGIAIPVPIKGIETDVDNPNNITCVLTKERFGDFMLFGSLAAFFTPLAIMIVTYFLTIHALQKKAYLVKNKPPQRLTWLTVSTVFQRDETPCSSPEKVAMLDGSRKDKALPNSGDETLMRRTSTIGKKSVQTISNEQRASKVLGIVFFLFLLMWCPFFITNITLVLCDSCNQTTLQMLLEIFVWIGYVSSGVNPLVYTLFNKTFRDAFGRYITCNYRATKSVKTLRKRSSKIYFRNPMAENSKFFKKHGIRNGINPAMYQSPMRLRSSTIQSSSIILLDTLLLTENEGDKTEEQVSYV

[22] = target: Serine/threonine-protein kinase SIK2 (Homo sapiens) (UniProt Q9H0K1); test: SIK2(h) Kinase panel; conditions: Compound concentration 1.0 uM, tested as the 2H-labelled form
[23] = target: Cyclin-dependent kinase 13 (Homo sapiens) (UniProt Q14004); test: CDK13/cyclinK(h) Kinase panel; conditions: Compound concentration 1.0 uM, tested as the 2H-labelled form
[24] = target: Serine/threonine-protein kinase D3 (Homo sapiens) (UniProt O94806); test: PKD3(h) Kinase panel; conditions: Compound concentration 1.0 uM, tested as the 2H-labelled form
[25] = target: Serine/threonine-protein kinase DCLK3 (Homo sapiens) (UniProt Q9C098); test: DCAMKL3(h) Kinase panel; conditions: Compound concentration 1.0 uM, tested as the 2H-labelled form
[26] = target: Alpha-1D adrenergic receptor (Homo sapiens) (UniProt P25100); conditions: Compound concentration 10.0 uM, tested as the 2H-labelled form
[27] = target: Calcium/calmodulin-dependent protein kinase type 1 (Homo sapiens) (UniProt Q14012); test: CaMKI(h) Kinase panel; conditions: Compound concentration 1.0 uM, tested as the 2H-labelled form
[28] = target: Serine/threonine-protein kinase ICK (Homo sapiens) (UniProt Q9UPZ9); test: ICK(h) Kinase panel; conditions: Compound concentration 1.0 uM, tested as the 2H-labelled form
[29] = target: Serine/threonine-protein kinase MRCK gamma (Homo sapiens) (UniProt Q6DT37); test: MRCKgamma(h) Kinase panel; conditions: Compound concentration 1.0 uM, tested as the 2H-labelled form
[30] = target: Serine/threonine-protein kinase PAK 2 (Homo sapiens) (UniProt Q13177); test: PAK2(h) Kinase panel; conditions: Compound concentration 1.0 uM, tested as the 2H-labelled form
[31] = target: Mitogen-activated protein kinase kinase kinase kinase 4 (Homo sapiens) (UniProt O95819); test: MAP4K4(h) Kinase panel; conditions: Compound concentration 1.0 uM, tested as the 2H-labelled form
[32] = target: Inhibitor of nuclear factor kappa-B kinase subunit alpha (Homo sapiens) (UniProt O15111); test: IKKalpha(h) Kinase panel; conditions: Compound concentration 1.0 uM, tested as the 2H-labelled form
[33] = target: Serine/threonine-protein kinase PAK 5 (Homo sapiens) (UniProt Q9P286); test: PAK5(h) Kinase panel; conditions: Compound concentration 1.0 uM, tested as the 2H-labelled form
Sequence of Serine/threonine-protein kinase PAK 5 (Homo sapiens) (Q9P286 whole entry, looked up): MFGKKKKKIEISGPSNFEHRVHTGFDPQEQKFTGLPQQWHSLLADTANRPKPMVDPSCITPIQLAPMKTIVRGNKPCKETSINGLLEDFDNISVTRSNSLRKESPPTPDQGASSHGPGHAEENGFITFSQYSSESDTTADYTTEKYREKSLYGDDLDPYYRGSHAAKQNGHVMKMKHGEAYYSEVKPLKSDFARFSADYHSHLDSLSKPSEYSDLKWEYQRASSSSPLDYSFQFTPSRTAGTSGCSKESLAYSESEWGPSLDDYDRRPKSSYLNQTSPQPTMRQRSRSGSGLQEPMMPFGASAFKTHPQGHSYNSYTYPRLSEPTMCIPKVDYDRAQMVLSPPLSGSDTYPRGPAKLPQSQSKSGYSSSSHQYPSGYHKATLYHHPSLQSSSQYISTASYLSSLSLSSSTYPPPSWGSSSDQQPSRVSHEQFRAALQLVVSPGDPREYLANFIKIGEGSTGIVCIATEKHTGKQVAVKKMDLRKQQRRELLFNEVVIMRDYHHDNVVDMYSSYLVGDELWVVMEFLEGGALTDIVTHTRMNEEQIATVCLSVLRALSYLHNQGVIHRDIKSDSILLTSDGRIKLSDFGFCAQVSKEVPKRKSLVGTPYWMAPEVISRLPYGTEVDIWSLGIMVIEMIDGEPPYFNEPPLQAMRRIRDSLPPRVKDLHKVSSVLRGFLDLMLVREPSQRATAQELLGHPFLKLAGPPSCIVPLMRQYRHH

[34] = target: SRSF protein kinase 1 (Homo sapiens) (UniProt Q96SB4); test: SRPK1(h) Kinase panel; conditions: Compound concentration 1.0 uM, tested as the 2H-labelled form
Sequence of SRSF protein kinase 1 (Homo sapiens) (Q96SB4 whole entry): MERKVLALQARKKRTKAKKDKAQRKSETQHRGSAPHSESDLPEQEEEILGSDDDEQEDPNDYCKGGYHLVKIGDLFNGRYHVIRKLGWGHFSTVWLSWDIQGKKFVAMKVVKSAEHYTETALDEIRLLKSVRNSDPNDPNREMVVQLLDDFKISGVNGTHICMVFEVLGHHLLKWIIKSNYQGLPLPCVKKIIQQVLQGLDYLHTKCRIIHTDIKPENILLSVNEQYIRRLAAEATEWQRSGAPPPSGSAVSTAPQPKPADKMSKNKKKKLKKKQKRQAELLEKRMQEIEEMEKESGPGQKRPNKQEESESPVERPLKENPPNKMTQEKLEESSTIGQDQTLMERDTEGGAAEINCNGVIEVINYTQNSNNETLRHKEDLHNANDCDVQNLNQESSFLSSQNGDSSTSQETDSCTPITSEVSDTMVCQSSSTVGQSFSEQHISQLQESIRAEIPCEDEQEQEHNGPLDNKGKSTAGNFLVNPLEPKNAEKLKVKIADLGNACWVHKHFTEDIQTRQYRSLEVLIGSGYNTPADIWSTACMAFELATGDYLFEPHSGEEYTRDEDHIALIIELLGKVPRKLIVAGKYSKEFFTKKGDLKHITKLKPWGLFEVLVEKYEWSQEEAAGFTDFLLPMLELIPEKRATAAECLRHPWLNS

[35] = target: Mitogen-activated protein kinase kinase kinase 7 (Homo sapiens) (UniProt O43318); test: TAK1(h) Kinase panel; conditions: Compound concentration 1.0 uM, tested as the 2H-labelled form
[36] = target: Serine-protein kinase ATM (Homo sapiens) (UniProt Q13315); test: ATM(h) Kinase panel; conditions: Compound concentration 1.0 uM, tested as the 2H-labelled form
[37] = target: Dual specificity tyrosine-phosphorylation-regulated kinase 2 (Homo sapiens) (UniProt Q92630); test: DYRK2(h) Kinase panel; conditions: Compound concentration 1.0 uM, tested as the 2H-labelled form
[38] = target: Serine/threonine-protein kinase BRSK2 (Homo sapiens) (UniProt Q8IWQ3); test: BrSK2(h) Kinase panel; conditions: Compound concentration 1.0 uM, tested as the 2H-labelled form
Sequence of Serine/threonine-protein kinase BRSK2 (Homo sapiens) (Q8IWQ3 whole entry): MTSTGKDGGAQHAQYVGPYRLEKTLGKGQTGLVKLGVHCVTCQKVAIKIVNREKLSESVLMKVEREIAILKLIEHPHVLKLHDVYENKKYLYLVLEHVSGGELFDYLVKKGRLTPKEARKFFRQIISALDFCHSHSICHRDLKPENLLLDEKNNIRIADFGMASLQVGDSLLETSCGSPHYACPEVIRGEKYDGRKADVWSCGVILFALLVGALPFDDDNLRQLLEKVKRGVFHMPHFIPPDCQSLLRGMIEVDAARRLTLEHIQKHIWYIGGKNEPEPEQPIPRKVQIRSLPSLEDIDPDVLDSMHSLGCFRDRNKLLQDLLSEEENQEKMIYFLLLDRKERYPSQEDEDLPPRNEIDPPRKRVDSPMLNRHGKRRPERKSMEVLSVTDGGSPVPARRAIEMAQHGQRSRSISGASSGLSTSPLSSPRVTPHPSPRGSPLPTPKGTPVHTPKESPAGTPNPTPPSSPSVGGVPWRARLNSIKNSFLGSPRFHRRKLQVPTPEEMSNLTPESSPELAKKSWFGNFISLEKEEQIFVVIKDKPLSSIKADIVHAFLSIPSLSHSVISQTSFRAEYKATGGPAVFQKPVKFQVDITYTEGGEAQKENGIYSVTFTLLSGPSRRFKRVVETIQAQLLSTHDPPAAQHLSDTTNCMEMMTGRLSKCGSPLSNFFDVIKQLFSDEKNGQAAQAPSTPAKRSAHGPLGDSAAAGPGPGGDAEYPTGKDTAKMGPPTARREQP

[39] = target: Transcription initiation factor TFIID subunit 1-like (Homo sapiens) (UniProt Q8IZX4); test: TAF1L(h) Kinase panel; conditions: Compound concentration 1.0 uM, tested as the 2H-labelled form
[40] = target: Mitogen-activated protein kinase kinase kinase 21 (Homo sapiens) (UniProt Q5TCX8); test: MLK4(h) Kinase panel; conditions: Compound concentration 1.0 uM, tested as the 2H-labelled form
[41] = target: Mast/stem cell growth factor receptor Kit (Homo sapiens) (UniProt P10721); test: cKit(h) Kinase panel; conditions: Compound concentration 1.0 uM, tested as the 2H-labelled form
[42] = target: Platelet-derived growth factor receptor alpha (Homo sapiens) (UniProt P16234); test: PDGFRalpha(h) Kinase panel; conditions: Compound concentration 1.0 uM, tested as the 2H-labelled form
[43] = target: Sigma non-opioid intracellular receptor 1 (Homo sapiens) (UniProt Q99720); conditions: Compound concentration 10.0 uM, tested as the 2H-labelled form
[44] = target: Mitogen-activated protein kinase kinase kinase 9 (Homo sapiens) (UniProt P80192); test: MLK1(h) Kinase panel; conditions: Compound concentration 1.0 uM, tested as the 2H-labelled form
[45] = target: Casein kinase II subunit alpha (Homo sapiens) (UniProt P68400); test: CK2alpha1(h) Kinase panel; conditions: Compound concentration 1.0 uM, tested as the 2H-labelled form
[46] = target: Fibroblast growth factor receptor 2 (Homo sapiens) (UniProt P21802); test: FGFR2(h) Kinase panel; conditions: Compound concentration 1.0 uM, tested as the 2H-labelled form
[47] = target: Aurora kinase A (Homo sapiens) (UniProt O14965); test: Aurora-A(h) Kinase panel; conditions: Compound concentration 1.0 uM, tested as the 2H-labelled form
[48] = target: Phosphatidylinositol 4-phosphate 3-kinase C2 domain-containing subunit alpha (Homo sapiens) (UniProt O00443); test: PI3KC2a(h) Kinase panel; conditions: Compound concentration 1.0 uM, tested as the 2H-labelled form
[49] = target: Alpha-1A adrenergic receptor (Homo sapiens) (UniProt P35348); conditions: Compound concentration 10.0 uM, tested as the 2H-labelled form
[50] = target: Tyrosine-protein kinase Lck (Homo sapiens) (UniProt P06239); test: Lck(h) Kinase panel; conditions: Compound concentration 1.0 uM, tested as the 2H-labelled form
[51] = target: Dual specificity tyrosine-phosphorylation-regulated kinase 3 (Homo sapiens) (UniProt O43781); test: DYRK3(h) Kinase panel; conditions: Compound concentration 1.0 uM, tested as the 2H-labelled form

inhibition [1]: 0% | inhibition [2]: -3% | inhibition [3]: 30% | inhibition [4]: 10% | inhibition [5]: 9% | inhibition [6]: 6% | inhibition [7]: 25% | inhibition [8]: 0% | inhibition [9]: -4% | inhibition [10]: -1% | inhibition [11]: 6% | inhibition [12]: 9% | inhibition [13]: 7% | inhibition [14]: 13% | inhibition [15]: 20% | inhibition [16]: -9% | inhibition [17]: 13% | inhibition [18]: -1.69% | inhibition [19]: -1% | inhibition [21]: 6.01% | inhibition [22]: 0% | inhibition [23]: 0% | inhibition [24]: 17% | inhibition [25]: -6% | inhibition [26]: 8.27% | inhibition [27]: 5% | inhibition [28]: 10% | inhibition [29]: 3% | inhibition [30]: -10% | inhibition [31]: 21% | inhibition [32]: 8% | inhibition [33]: 2% | inhibition [34]: 2% | inhibition [35]: -5% | inhibition [36]: 3% | inhibition [37]: 0% | inhibition [38]: -2% | inhibition [39]: 3% | inhibition [40]: 20% | inhibition [41]: -6% | inhibition [42]: 2% | inhibition [43]: 15.1% | inhibition [44]: -3% | inhibition [45]: 2% | inhibition [46]: 11% | inhibition [47]: -6% | inhibition [48]: -2% | inhibition [49]: 0.58% | inhibition [50]: 17% | inhibition [51]: 7%
Compound: CC1(C)Cn2nc(-c3ccc(F)cn3)c(-c3ccnc4[nH]ncc34)c2CO1
inhibition [20]: 10%
